# Read-outs that look alike come from different tables or passages of the source.
# Legend:
# [1] = Solubility in water of calcium salts; assay type: physicochemical
# Description: The solubility in water of the calcium lactobionate thus obtained was compared with those of other calcium salts (manufactured by Wako Pure Chemical Industries).
# laying hens [2] = assay type: in vivo; conditions: feed without calcium carbonate and di-lime phosphate; hens aged 470 days, fed 60 days
# Description: (§1) Ten laying hens aged 470 days (laying white leghorn hens (Julia)) were fed with each of the feeds prepared in Examples 2 to 5 for 60 days and the egg-laying rate, the egg breakage and egg cracking rate and eggshell strength were measured. The egg-laying rate was determined in accordance with the following Equation 1, while the egg breakage and egg cracking rate were determined in accordance with the following Equation 2. Eggshell strength was determined by horizontally placing an egg and measuring the bursting strength with a rheometer. A feed containing no feed additive for laying hens was also prepared as a control. […] Egg-laying rate=(total number of eggs in each test lot/total number of eggs in control lot)×100 [Equation 1] Egg breakage/cracking rate=(number of broken or cracked eggs/total number of eggs yield)×100 [Equation 2]
# Ten laying hens aged 470 days (laying white leghorn hens (Julia)) were fed with each of the feeds prepared in Examples 10 and 11 for 60 days and the egg-laying rate, the egg breakage and egg cracking rate and eggshell strength were measured in the same manner as in Examples 2 to 5. […]
# laying hens [3] = assay: Test Example 4: feeding of feeds of Examples 12 to 14 to laying hens aged 500 days for 60 days; assay type: in vivo; conditions: Boris Brown hens aged 500 days, fed 60 days
# Description: as §1
# Four laying hens aged 500 days (Boris Brown) were fed with each of the feeds prepared in Examples 12 to 14 for 60 days and the egg-laying rate and the eggshell strength were measured in the same manner as in Examples 2 to 5. […]
Solubilities in water [1] [g/100 mL],Compound,Solubilities in water ([1]; water) [g/100 mL],Eggshell strength (laying hens [2]),Eggshell strength (laying hens [3])
–,"O=C([O-])[C@H](O)[C@@H](O)[C@H](O)[C@H](O)CO.O=C([O-])[C@H](O)[C@@H](O)[C@H](O)[C@H](O)CO.[Ca+2] [Ca gluconate, reference compound]",3.8,–,–
>40,"O=C([O-])[C@H](O)[C@@H](O)[C@H](O[C@@H]1O[C@H](CO)[C@H](O)[C@H](O)[C@H]1O)[C@H](O)CO.O=C([O-])[C@H](O)[C@@H](O)[C@H](O[C@@H]1O[C@H](CO)[C@H](O)[C@H](O)[C@H]1O)[C@H](O)CO.[Ca+2] [Ca lactobionate, calcium lactobionate]",–,showed an effect of reinforcing eggshells,eggshell reinforcing effect could be obtained

# From US8808728B2, “Feed additive for laying hen and feed containing the same” (Unitika Ltd., priority 2004, dated 2014)
